Where “and” joins values, the source holds several entries; their conditions need not be identical. Equal entries are not always repeated. Where two headings read alike, the source gives them in different places.

Data set [1] deals with MDA-MB-231 breast cancer cells. The experiment in a line: MTT cytotoxicity assay against MDA-MB-231. To be noted: Homo sapiens, mean ± SE of three independent experiments. The format is cell-based. As for the experimental part: Cells were cultured using Dulbecco’s Modified Eagle’s Medium (Invitrogen/Life Technologies) supplemented with 10% FBS (Hyclone), 10 µg/mL of insulin, and 1% penicillin–streptomycin. Cells were seeded in 96-well plate with cells density 1.2–1.8 × 10,000 cells/well, in a volume of 100 µL complete growth medium + 100 µL of the tested compound per well and the plate was incubated for 24 h before the MTT assay. […] IC50 was calculated according to the equation of Boltzmann sigmoidal concentration-response curve using Graph Pad Prism 5.

The next data set deals with T1, EGFR (Homo sapiens, UniProt P00533).
T1 construct: purchased Invitrogen PV3872
T1 sequence (P00533 25-1210): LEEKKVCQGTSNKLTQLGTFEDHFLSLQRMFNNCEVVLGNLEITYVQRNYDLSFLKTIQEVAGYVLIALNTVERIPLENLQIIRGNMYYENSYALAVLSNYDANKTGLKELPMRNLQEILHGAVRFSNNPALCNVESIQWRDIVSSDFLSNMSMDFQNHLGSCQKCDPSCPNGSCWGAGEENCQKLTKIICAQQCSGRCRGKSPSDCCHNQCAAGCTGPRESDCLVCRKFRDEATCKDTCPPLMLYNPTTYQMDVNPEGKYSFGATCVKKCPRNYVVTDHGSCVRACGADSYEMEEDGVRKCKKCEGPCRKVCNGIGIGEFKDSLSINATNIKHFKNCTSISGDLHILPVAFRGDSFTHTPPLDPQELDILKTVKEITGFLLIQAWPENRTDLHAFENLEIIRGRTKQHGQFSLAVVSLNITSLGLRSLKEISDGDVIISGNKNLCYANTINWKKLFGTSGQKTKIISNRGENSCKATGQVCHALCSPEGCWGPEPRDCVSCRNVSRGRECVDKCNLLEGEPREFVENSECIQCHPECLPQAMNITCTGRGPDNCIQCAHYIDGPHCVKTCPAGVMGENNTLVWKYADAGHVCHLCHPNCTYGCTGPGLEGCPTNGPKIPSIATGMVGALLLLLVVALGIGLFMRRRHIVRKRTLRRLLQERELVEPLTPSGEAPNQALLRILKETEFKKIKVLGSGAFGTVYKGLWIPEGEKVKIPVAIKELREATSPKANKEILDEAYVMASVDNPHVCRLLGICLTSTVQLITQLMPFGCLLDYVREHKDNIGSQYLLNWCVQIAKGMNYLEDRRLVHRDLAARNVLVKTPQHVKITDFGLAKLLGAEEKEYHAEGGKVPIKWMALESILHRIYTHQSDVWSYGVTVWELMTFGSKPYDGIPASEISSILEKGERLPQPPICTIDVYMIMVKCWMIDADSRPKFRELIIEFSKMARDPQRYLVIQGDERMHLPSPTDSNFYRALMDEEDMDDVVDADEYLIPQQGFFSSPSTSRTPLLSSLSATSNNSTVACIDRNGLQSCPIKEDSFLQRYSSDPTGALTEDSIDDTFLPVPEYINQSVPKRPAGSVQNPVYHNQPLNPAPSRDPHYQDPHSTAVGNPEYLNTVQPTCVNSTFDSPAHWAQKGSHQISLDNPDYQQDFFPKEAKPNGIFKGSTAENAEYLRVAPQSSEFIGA
Description: In vitro enzymatic activity assay, EGFR kinase kit. The format is biochemical. To be noted: for IC50: mean ± SE of three independent experiments; for % Inhibition of EGFR: concentration not given. As for the experimental part: (§1) EGFR and HER2 kinase kits were purchased from Invitrogen. […] ATP solution and a kinase/peptide mixture were prepared. The plate was incubated for 1 h at room temperature. About […] of the developing solution was added to each well. The plate was incubated for 1 h and then read by ELISA Reader (PerkinElmer, USA). Every experiment was repeated three times. Data represented as means ± SE from three independent experiments. Curve fitting was performed using Graph Pad Prism 5.

In a further data set the target is T2, HER2 (Homo sapiens, UniProt P04626).
T2 construct: purchased Invitrogen PV3366
T2 sequence (P04626 23-1255): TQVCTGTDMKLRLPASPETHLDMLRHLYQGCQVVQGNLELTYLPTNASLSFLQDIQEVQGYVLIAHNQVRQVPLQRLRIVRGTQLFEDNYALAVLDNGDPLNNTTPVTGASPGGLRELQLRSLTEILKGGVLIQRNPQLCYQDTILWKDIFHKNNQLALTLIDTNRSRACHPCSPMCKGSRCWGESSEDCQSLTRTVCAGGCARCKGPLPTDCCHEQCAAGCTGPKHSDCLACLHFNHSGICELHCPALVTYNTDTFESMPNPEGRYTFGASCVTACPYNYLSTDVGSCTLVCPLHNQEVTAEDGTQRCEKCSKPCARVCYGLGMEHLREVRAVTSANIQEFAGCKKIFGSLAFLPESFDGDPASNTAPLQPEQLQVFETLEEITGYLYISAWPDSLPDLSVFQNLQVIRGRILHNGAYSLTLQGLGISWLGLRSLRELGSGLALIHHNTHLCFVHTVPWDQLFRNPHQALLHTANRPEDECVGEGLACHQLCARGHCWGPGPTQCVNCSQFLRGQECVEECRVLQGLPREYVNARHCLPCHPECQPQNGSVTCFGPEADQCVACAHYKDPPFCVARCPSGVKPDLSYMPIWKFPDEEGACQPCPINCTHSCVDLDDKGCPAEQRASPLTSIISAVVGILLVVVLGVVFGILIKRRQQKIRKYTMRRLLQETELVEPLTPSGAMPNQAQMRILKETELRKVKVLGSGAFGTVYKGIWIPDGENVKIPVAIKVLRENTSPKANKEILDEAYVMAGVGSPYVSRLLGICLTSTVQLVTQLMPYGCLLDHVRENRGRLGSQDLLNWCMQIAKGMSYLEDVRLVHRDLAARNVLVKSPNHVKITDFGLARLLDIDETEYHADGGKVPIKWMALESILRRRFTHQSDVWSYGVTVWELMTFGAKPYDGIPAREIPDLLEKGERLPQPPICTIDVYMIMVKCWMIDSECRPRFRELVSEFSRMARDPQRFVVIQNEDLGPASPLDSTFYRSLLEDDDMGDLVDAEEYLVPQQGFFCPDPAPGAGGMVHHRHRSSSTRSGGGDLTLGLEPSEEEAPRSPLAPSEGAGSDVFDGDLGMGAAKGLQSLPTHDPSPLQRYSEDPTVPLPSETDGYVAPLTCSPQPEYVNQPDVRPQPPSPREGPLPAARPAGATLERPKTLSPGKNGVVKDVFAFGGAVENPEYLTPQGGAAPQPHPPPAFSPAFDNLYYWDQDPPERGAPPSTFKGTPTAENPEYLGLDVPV
Description: In vitro enzymatic activity assay, HER2 kinase kit. The format is biochemical. To be noted: mean ± SE of three independent experiments. As for the experimental part:
as §1

The test system of a further data set is caspase-3. Description: Active caspase-3 level immunoassay. The format is cell-based, human. The note with it: for Caspase 3: level of active caspase-3, control 53.2. As to the method:
Cover and incubate for 2 h at room temperature. […] Incubate for 1 h then add 100 µL anti-rabbit IgG HRP working solution to each well and incubate for 30 min. The absorbance of each well was measured at 450 nm.

In a further data set the test system is Bax. The experiment in a line: Bax expression level. The format is cell-based, human. To be noted: MDA-MB-231 cells, compared to the control cells.
A further data set deals with Bcl2. Description: Bcl2 expression level. The format is cell-based, human. To be noted: MDA-MB-231 cells, compared to the control cells.
The next data set has as its system MDA-MB-231 cell line. Description: Cell cycle distribution analysis (propidium iodide, DNA cytometer). The format is cell-based, human. To be noted: MDA-MB-231 cells treated at IC50; for %Apoptosis: PreG1, control 0.97; for %G2-M: control 6.44; for %S: control 23.04; for %G0-G1: control 69.55. As for the experimental part: Control cells with known DNA content (peripheral blood mononuclear cells) were used as a reference point for determining the DNA index for the test samples. The cells were stained with propidium iodide stain following the procedure provided by the kit then incubated at room temperature for 5 min in the dark and run on the DNA cytometer. Cell cycle distribution was calculated using […] software (Becton Dickinson Immunocytometry Systems, San Jose, CA, USA).

Data set [2] is described as follows: MTT cytotoxicity against normal breast cells. To be noted: human, 184A1 normal breast cells; MTT assay. The format is cell-based. As for the experimental part: MDA-MB-231 breast cancer cells and 184A1 normal breast cells of American Type Culture Collection were obtained from VACSERA, Egypt. Cells were cultured using Dulbecco’s Modified Eagle’s Medium (Invitrogen/Life Technologies) supplemented with 10% FBS (Hyclone), 10 µg/mL of insulin, and 1% penicillin–streptomycin. Cells were seeded in 96-well plate with cells density 1.2–1.8 × 10,000 cells/well, in a volume of 100 µL complete growth medium + 100 µL of the tested compound per well and the plate was incubated for 24 h before the MTT assay. The cell layer was rinsed with 0.25% (w/v) trypsin, 0.53 mM EDTA solution, incubated for 2 h, then the absorbance was measured at a wavelength of 570 nm[30]. IC50 was calculated according to the equation of Boltzmann sigmoidal concentration-response curve using Graph Pad Prism 5.
Background: Tetrazolium assays rely on reduction of a dye to a coloured formazan, in cell work by metabolically active cells.

A further data set has as its system MDA-MB-231 cells. Description: Radiosensitizing activity (MTT with 8 Gy gamma irradiation). The format is cell-based. The note with it: Homo sapiens, light or radiation study. As for the experimental part: Irradiation was performed at the National Center for Radiation Research and Technology (NCRRT), Egyptian Atomic Energy Authority (EAEA), using gamma cell-40 (^137Cs) source. Compound 10 was selected to be re-evaluated for the in vitro antiproliferative activity in combination with γ-irradiation using MTT assay. Cells were incubated with compound 10 in molar concentrations of 0.01, 0.1, 1.0, and 10 µM. After 2 h, cells were subjected to a single dose of 8 Gy of γ-radiation at a dose rate of 0.758 rad/s for 17.73 min, and then the anti-proliferative activity was measured 48 h after irradiation. The IC50 of the tested compounds was calculated after irradiation.

As for `Cc1ccc(NC(=O)CSc2nc3cc4ccccc4cc3c(=O)n2-c2ccc(S(N)(=O)=O)cc2)cc1C` [Compound 10, N-(3,4-Dimethylphenyl)-2-[(4-oxo-3-(4-sulfamoylphenyl)-3,4-dihydrobenzo[g]quinazolin-2-yl)thio]acetamide], the melting point (usually the temperature of the solid-liquid transition) turned out to be 232.8 °C. Moreover, in [1], the IC50 (usually the concentration needed to halve the response being measured) worked out at 0.31 ± 0.01 µM. In addition, on EGFR, inhibition was half-maximal at 3.9 ± 0.03 µM (IC50). Besides, the concentration for half-maximal inhibition (IC50) against HER2 was 5.4 ± 0.12 µM. The “Caspase 3 Folds” value in the data set on caspase-3 (increase compared to the control cells) is 10 Folds and 10.25 Folds. Further, the “Caspase 3” value in the data set on caspase-3 was determined as 545.7 pg/mL. Also, in the data set with Bax, the “Bax (Folds)” value was 9 Folds and 9.372 Folds. The “Bcl2 (Folds)” value in the data set with Bcl2 is 0.14 Folds and 0.1379 Folds. In the data set with MDA-MB-231 cell line, the “%Apoptosis” value is reported as 14.84%, the “%G2-M” value is recorded as 17.52%, the “%S” value is listed as 18.28% and the “%G0-G1” value is on record as 49.36%. For the same molecule, 84.5 ± 0.72 µM corresponded to half-maximal inhibition in data set [2] (IC50 at 24 h). In the data set on MDA-MB-231 cells (no irradiation, read-out: IC50 before Irradiation), the IC50 is 0.31 ± 0.01 µM. Further, in the data set with MDA-MB-231 cells (single dose of 8 Gy γ-radiation, measured 48 h after irradiation, read-out: IC50 after Irradiation), the half-maximal inhibitory concentration (IC50) turned out to be 0.22 ± 0.03 µM.
The molecule `NS(=O)(=O)c1ccc(-n2c(SCC(=O)Nc3nc4ccc([N+](=O)[O-])cc4s3)nc3cc4ccccc4cc3c2=O)cc1` [Compound 8, N-(6-Nitrobenzo[d]thiazol-2-yl)-2-[(4-oxo-3-(4-sulfamoylphenyl)-3,4-dihydrobenzo[g]quinazolin-2-yl)thio]acetamide] yielded a melting point of 278.3 °C. The molecule also had an IC50 in data set [1] of 2.91 ± 0.03 µM. Besides, the “% Inhibition of EGFR” value on EGFR came out at 54.61%.
The matching figures for `NS(=O)(=O)c1ccc(-n2c(SCC(=O)Nc3nnc(C(F)(F)F)s3)nc3cc4ccccc4cc3c2=O)cc1` [Compound 9, 2-[(4-Oxo-3-(4-sulfamoylphenyl)-3,4-dihydrobenzo[g]quinazolin-2-yl)thio]-N-(5-(trifluoromethyl)-1,3,4-thiadiazol-2-yl)acetamide]: 257 °C, 2.19 ± 0.05 µM and 52.49%.
Taken in the same sequence, the figures for `CCOc1ccc2nc(NC(=O)CSc3nc4cc5ccccc5cc4c(=O)n3-c3ccc(S(N)(=O)=O)cc3)sc2c1` [Compound 7, N-(6-Ethoxybenzo[d]thiazol-2-yl)-2-[(4-oxo-3-(4-sulfamoylphenyl)-3,4-dihydrobenzo[g]quinazolin-2-yl)thio]acetamide] were 255.9 °C, 26.5 ± 2.14 µM and 25.98%.
On to `C#Cc1cccc(Nc2ncnc3cc(OCCOC)c(OCCOC)cc23)c1` [Erlotinib, N-(3-ethynylphenyl)-6,7-bis(2-methoxyethoxy)quinazolin-4-amine, reference compound], for which the “Caspase 3” value in the data set with caspase-3 turned out to be 480.1 pg/mL. In the data set with MDA-MB-231 cell line, the “%Apoptosis” value is given as 17.33%, the “%G2-M” value turned out to be 24.81%, the “%S” value was found to be 16.31% and the “%G0-G1” value was found to be 41.55%. 102 ± 3.55 µM corresponded to half-maximal inhibition in data set [2] (IC50 at 24 h).
In turn, `NS(=O)(=O)c1ccc(-n2c(SCC(=O)Nc3cccc4ccccc34)nc3cc4ccccc4cc3c2=O)cc1` [Compound 17, N-(Naphthalene-1-yl)-2-[(4-oxo-3-(4-sulfamoylphenyl)-3,4-dihydrobenzo[g]quinazolin-2-yl)thio]acetamide] showed a melting point of 241.6 °C. In [1], this molecule gave an IC50 of 161 ± 4.69 µM. The “% Inhibition of EGFR” value at EGFR is reported as 8.71%.
The matching figures for `Cc1cc(NC(=O)CSc2nc3cc4ccccc4cc3c(=O)n2-c2ccc(S(N)(=O)=O)cc2)no1` [Compound 5, N-(5-Methylisoxazol-3-yl)-2-[(4-oxo-3–(4-sulfamoylphenyl)-3,4-dihydrobenzo[g]quinazolin-2-yl)thio]acetamide]: 292.4 °C, 2.47 ± 0.08 µM and 42.00%.
With `NS(=O)(=O)c1ccc(-n2c(SCC(=O)Nc3nccs3)nc3cc4ccccc4cc3c2=O)cc1` [Compound 6, 2-[(4-Oxo-3-(4-sulfamoylphenyl)-3,4-dihydrobenzo[g]quinazolin-2-yl)thio]-N-(thiazol-2-yl)acetamide], the melting point stood at 304 °C. Also, in [1], the 50% inhibitory concentration (IC50) was 23.2 ± 1.88 µM. The “% Inhibition of EGFR” value at EGFR is reported as 18.13%.
For `NS(=O)(=O)c1ccc(-n2c(SCC(=O)Nc3cnccn3)nc3cc4ccccc4cc3c2=O)cc1` [Compound 16, 2-[(4-Oxo-3-(4-sulfamoylphenyl)-3,4-dihydrobenzo[g]quinazolin-2-yl)thio]-N-(pyrazin-2-yl)acetamide], the melting point was found to be 205.7 °C. In data set [1], the half-maximal inhibitory concentration (IC50) is 0.32 ± 0.01 µM. The “% Inhibition of EGFR” value on EGFR stood at 59.66%.
The molecule `NS(=O)(=O)c1ccc(-n2c(SCC(=O)Nc3ccc4c(c3)C(=O)c3ccccc3C4=O)nc3cc4ccccc4cc3c2=O)cc1` [Compound 18, N-(9,10-Dioxo-9,10-dihydroanthracen-2-yl)-2-[(4-oxo-3-(4-sulfamoylphenyl)-3,4-dihydrobenzo[g]quinazolin-2-yl)thio]acetamide] had a melting point of 256.7 °C. In addition, in data set [1], the half-inhibitory concentration (IC50) was 0.26 ± 0.01 µM. The same molecule came in with a concentration for half-maximal inhibition (IC50) against EGFR of 9.66 ± 0.08 µM. At HER2, this molecule showed an IC50 of 3.2 ± 0.04 µM.
As for `Cc1cccc(C)c1NC(=O)CSc1nc2cc3ccccc3cc2c(=O)n1-c1ccc(S(N)(=O)=O)cc1` [Compound 12, N-(2,6-Dimethylphenyl)-2-[(4-oxo-3-(4-sulfamoylphenyl)-3,4-dihydrobenzo[g]quinazolin-2-yl)thio]acetamide], the melting point came to 300.5 °C. The molecule further returned an IC50 in data set [1] of 2.19 ± 0.09 µM. The “% Inhibition of EGFR” value on EGFR came out at 41.86%.
In the case of `Cc1cc([N+](=O)[O-])ccc1NC(=O)CSc1nc2cc3ccccc3cc2c(=O)n1-c1ccc(S(N)(=O)=O)cc1` [Compound 13, N-(2-Methyl-4-nitrophenyl)-2-[(4-oxo-3-(4-sulfamoylphenyl)-3,4-dihydrobenzo[g]quinazolin-2-yl)thio]acetamide], the melting point is 293.8 °C. Further, the midpoint of inhibition in data set [1], the IC50, lay at 0.4 ± 0.01 µM. In addition, the half-inhibitory concentration (IC50) against EGFR worked out at 10.2 ± 0.1 µM. Further, the IC50 against HER2 stood at 13.01 ± 0.09 µM.
`Cn1c(NC(=O)CSc2nc3cc4ccccc4cc3c(=O)n2-c2ccc(S(N)(=O)=O)cc2)cc(=O)n(C)c1=O` [Compound 15, N-(1,3-Dimethyl-2,6-dioxo-1,2,3,6-tetrahydropyrimidin-4-yl)-2-[(4-oxo-3-(4-sulfamoylphenyl)-3,4-dihydrobenzo[g]quinazolin-2-yl)thio]acetamide] had a melting point of 307.7 °C. In data set [1], this molecule had a 50% inhibitory concentration (IC50) of 21.8 ± 1.63 µM. Further, the “% Inhibition of EGFR” value on EGFR came to 21.45%.
As to `NS(=O)(=O)c1ccc(-n2c(SCC(=O)Nc3c[nH]c(=O)[nH]c3=O)nc3cc4ccccc4cc3c2=O)cc1` [Compound 14, N-(2,4-Dioxo-1,2,3,4-tetrahydropyrimidin-5-yl)-2-[(4-oxo-3-(4-sulfamoylphenyl)-3,4-dihydrobenzo[g]quinazolin-2-yl)thio]acetamide], the melting point turned out to be 280 °C. For the same molecule, in data set [1], the half-inhibitory concentration (IC50) turned out to be 0.37 ± 0.01 µM. Further, the concentration for half-maximal inhibition (IC50) against EGFR turned out to be 4.11 ± 0.02 µM. Also, at HER2, the 50% inhibitory concentration (IC50) came out at 26.03 ± 0.22 µM.
The matching figures for `Cc1ccc(C)c(NC(=O)CSc2nc3cc4ccccc4cc3c(=O)n2-c2ccc(S(N)(=O)=O)cc2)c1` [Compound 11, N-(2,5-Dimethylphenyl)-2-[(4-oxo-3-(4-sulfamoylphenyl)-3,4-dihydrobenzo[g]quinazolin-2-yl)thio]acetamide]: 279.3 °C, 0.28 ± 0.01 µM, 2.55 ± 0.17 µM and 31.31 ± 0.31 µM.

These data come from PMC6522976, “Novel sulphonamide benzoquinazolinones as dual EGFR/HER2 inhibitors, apoptosis inducers and radiosensitizers” (Journal of Enzyme Inhibition and Medicinal Chemistry, 2019).
